Tested on: human fibroblasts
Experiment: TMT proteomics of fibroblasts with and without UV exposure, differential expression and pathway analysis
Type: cell-based
Settings: result in words
Method: Human fibroblasts were obtained from Cell Applications Inc (Cat. # 106-05a) and were maintained in Dulbecco’s Modified Eagle medium (DMEM, Corning, Cat. #10-013-CV) with 10% fetal bovine serum (Gibco, Cat. #10082147) and 1% penicillin/streptomycin (Gibco, Cat. # 15070-063) in a humidified incubator with 5% CO2 at 37 °C. For ultraviolet radiation, fibroblasts were seeded in a 96-well plate at a density of 25,000 cells/well and maintained at 37 °C for 24 h. Cells were washed once with Hanks’ balanced salt solution (HBSS, Gibco, Cat. #14025-092), then treated for 1 h with different concentrations of compounds prepared in HBSS. Vitamin C (Sigma, Cat. # A5960) served as a positive control. Treated cells were exposed to ultraviolet light (UVP cross-linker, CL1000, 254 nm UV, 8 watts) at a total dose of 20 mJ/cm^2. Following irradiation, the HBSS was replaced with culture medium containing the same concentration of compounds as before irradiation, and cells were again maintained at 37 °C. Cell viability was measured at 24 h post-irradiation using CellTiter-Glo according to the manufacturer’s instructions (Promega, Cat.# G7571). Results were expressed as relative cell viability (%) with respect to control cells (cells without ultraviolet irradiation or compound treatment).
Frozen cell pellets were dissolved for 15 min in 6M Guanidinium Chloride at room temperature to lyse cells. Then, each solution was run on a 10 kDa filter (Pall, TX) and washed with 50 μL of TEAB buffer at 3000 rpm. FASP Digestion ([56]): A stock solution of Trypsin Platinum, Mass Spec Grade (Promega) at 100 μg/mL in 50 mM TEAB, and a specific volume of stock trypsin was added to each sample vial for each set of […] using a 1:50 ratio (Trypsin:Protein). Samples were incubated for 2 h at 50 °C and shaken/mixed at 350 rpm on an Eppendorf ThermoMixer C. TMT Labeling: Samples, now peptides, were labeled using 4 μL of TMTpro Mass Tag Labels (ThermoScientific). After labeling, samples were then shaken/mixed for 45 min to ensure labels were covalently bonded to peptides. The labeling reaction was quenched for 10 min using 1 μL of 5% hydroxyalamine. After quenching, samples were pooled into one 2 mL Eppendorf tube and then dried down using an Eppendorf Vacufuge Plus. Desalting Samples: Dried samples were resuspended in 300 μL of 0.1% TFA in ultrapure HPLC-grade water and vortexed to ensure full solubility. Samples were then desalted using Pierce^TM Peptide Desalting Spin Columns (ThermoScientific). Final eluates (desalted samples) contained 600 μL of 50% HPLC-grade Acetonitrile and 50% ultrapure HPLC-grade water. Desalted samples were then transferred to HPLC vials and were again dried down. […]

## O=c1c(O[C@@H]2O[C@H](CO)[C@@H](O)[C@H](O)[C@H]2O)c(-c2ccc(O)c(O)c2)oc2cc(O)cc(O)c12 [isoquercitrin]
UV-irradiated cells
  proteins/pathways up- and downregulated, exposed to UV radiation: upregulation of collagen and cell cycle/DNA repair proteins while downregulating proteins associated with autophagy, necroptosis, ferroptosis, lysosomal degradation, and other pathways
Control conditions without UV
  proteins/pathways up- and downregulated, without UV treatment: upregulated proteins associated with DNA repair pathways and downregulated inflammatory pathways
